Assay results taken from patent US20240025924A1, “HETEROCYCLE SUBSTITUTED KETONE DERIVATIVE, AND COMPOSITION AND MEDICINAL USE THEREOF” (SHANGHAI HAIYAN PHARMACEUTICAL TECHNOLOGY CO., LTD., priority 2021, published 2024).

How the values were obtained:
MV-4-11 cell = assay: Cell proliferation assay (Cell Titer-Glo); format: cell-based; conditions: Homo sapiens, MV4-11, 96 h, inhibition of MV-4-11 cell proliferation; Cell Titer-Glo on day 4
Method: MV 411 cells (20000 cells/well) were inoculated and cultured in 96 (Corning #3916) well plates, and the medium was 80 μL/well (IMDM with 10% fetal bovine serum (FBS), Gibco #10099-141C). After 24 hours of incubation, 20 μL of the compounds of the present invention configured to different concentrations (DMSO final concentration of 0.1% (V/V)) were added. On day 4, 60 μL of Cell Titer-Glo (Promega #G7558) was added to each well and mixed at 80 rpm, 25° C., 15 min, and the fluorescence values were detected by Victor X5 (PE).

SHP-2 enzyme = target: T1, SHP-2 enzyme (Homo sapiens, UniProt Q06124); assay: Phosphatase activity assay (Homogeneous Full Length SHP-2 Assay Kit, DiFMUP substrate); format: biochemical; conditions: full length SHP-2 activated with 0.5 μM SHP-2 activating Peptide; 1 hour co-incubation; DiFMUP 50 μM, 30 min
T1 construct: Homogeneous Full Length SHP-2 Assay Kit (BPS Bioscience #79330); purchased BPS Bioscience 79330
T1 sequence (Q06124 1-593): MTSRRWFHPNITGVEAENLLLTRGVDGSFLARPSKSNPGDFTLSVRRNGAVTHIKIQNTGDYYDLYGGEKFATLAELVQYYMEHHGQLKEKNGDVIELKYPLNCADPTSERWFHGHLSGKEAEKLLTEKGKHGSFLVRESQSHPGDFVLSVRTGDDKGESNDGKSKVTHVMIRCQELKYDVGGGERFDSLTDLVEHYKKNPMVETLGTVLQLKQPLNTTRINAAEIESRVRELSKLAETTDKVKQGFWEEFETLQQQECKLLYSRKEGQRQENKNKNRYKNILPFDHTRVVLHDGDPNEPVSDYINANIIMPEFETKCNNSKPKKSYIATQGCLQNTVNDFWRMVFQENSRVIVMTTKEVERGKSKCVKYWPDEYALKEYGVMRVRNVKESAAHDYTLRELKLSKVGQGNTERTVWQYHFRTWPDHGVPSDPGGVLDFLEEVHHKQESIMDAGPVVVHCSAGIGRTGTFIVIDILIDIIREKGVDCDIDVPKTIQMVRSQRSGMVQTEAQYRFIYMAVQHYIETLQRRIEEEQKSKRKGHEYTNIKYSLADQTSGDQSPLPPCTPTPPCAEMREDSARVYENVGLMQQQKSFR
Method: IC50 values were assayed using Homogeneous Full Length SHP-2 Assay Kit (BPS Bioscience #79330), which uses 6,8-difluoro-4-methylumbelliferone phosphate (DiFMUP) as the reaction substrate. SHP2 enzyme solution (diluted to 0.04 ng/μL with 1*buffer) was mixed with 0.5 μM SHP-2 activating Peptide in a 1*buffer solution containing 2.5 mM DTT to activate PTP. At the same time, DMSO (0.1% (V/V)) or the compounds (concentration: 0.5 nM to 1 μM) were added, mixed and co-incubated for 1 hour. DiFMUP (50 μM, total reaction system volume of 20 μL) was added, and the reaction was started. After 30 min of incubation, the fluorescence intensity of the reaction system (excitation wavelength: 350 nm, emission wavelength: 460 nm) was measured by Tecan Infinite M1000.

Row | IC50 (MV-4-11 cell) | IC50 (SHP-2 enzyme) | SMILES
1 | 0.196 µM | 0.004 µM | Nc1nc(N2CCC3(CC2)Cc2ccccc2C3N)cnc1C(=O)N1CCc2nc(Cl)ccc21 (stereo not shown) [Compound 52]
2 | 0.192 µM | 0.004 µM | Nc1nc(N2CCC3(CC2)Cc2cc(Cl)ccc2C3N)cnc1C(=O)N1CCc2ncccc21 (stereo not shown) [Compound 53]
3 | 0.206 µM | 0.008 µM | CC1(C)CN(C(=O)c2ncc(N3CCC4(CC3)Cc3ccccc3C4N)nc2N)Cc2scnc21 (stereo not shown) [Compound 54]
4 | 0.071 µM | 0.007 µM | CC1(C)CN(C(=O)c2ncc(N3CCC4(CC3)Cc3ccccc3C4N)nc2N)Cc2sc(N)nc21 (stereo not shown) [Compound 61]
5 | 0.156 µM | 0.005 µM | COc1ccc2c(c1)C(N)C1(CCN(c3cnc(C(=O)N4CCc5nc(N)ccc54)c(N)n3)CC1)C2 (stereo not shown) [Compound 62]
6 | 0.07 µM | 0.005 µM | Cc1ccc2c(c1)C(N)C1(CCN(c3cnc(C(=O)N4CCc5nc(N)ccc54)c(N)n3)CC1)C2 (stereo not shown) [Compound 64]
7 | 0.005 µM | 0.004 µM | Cc1nc(C(=O)N2Cc3sc(N)nc3C(F)(F)C2)c(N)nc1N1CCC2(CC1)Cc1ccccc1C2N (stereo not shown) [Compound 65]
8 | 0.196 µM | 0.009 µM | Nc1ccc2c(n1)CCN2C(=O)c1ncc(N2CCC3(CC2)Cc2ccc(CO)cc2C3N)nc1N (stereo not shown) [Compound 66]
9 | 0.079 µM | 0.007 µM | Nc1nc(N2CCC3(CC2)Cc2ccccc2C3N)cnc1C(=O)N1CCCc2n[nH]cc21 (stereo not shown) [Compound 67]
10 | 0.125 µM | 0.007 µM | Nc1ccc2c(n1)CCN2C(=O)c1cnc(N2CCC3(CC2)Cc2ccccc2C3N)c(CO)n1 (stereo not shown) [Compound 68]
11 | 0.009 µM | 0.005 µM | Nc1nc2c(s1)CN(C(=O)c1ncc(N3CCC4(CC3)Cc3ccccc3C4N)nc1N)CC2 (stereo not shown) [Compound 75]
12 | 0.191 µM | 0.01 µM | COc1ccc2c(c1)CC1(CCN(c3cnc(C(=O)N4CCCn5nccc54)c(N)n3)CC1)C2N (stereo not shown) [Compound 76]
13 | 0.15 µM | 0.011 µM | Nc1nc(N2CCC3(CC2)Cc2c(F)cccc2C3N)nnc1C(=O)N1CCCn2nccc21 (stereo not shown) [Compound 77]
14 | 0.218 µM | 0.01 µM | Nc1nc(N2CCC3(CC2)Cc2c(F)cccc2C3N)c(F)nc1C(=O)N1CCCn2nccc21 (stereo not shown) [Compound 78]
15 | 0.257 µM | 0.014 µM | Nc1nc(N2CCC3(CC2)Cc2ccncc2C3N)cnc1C(=O)N1CCCn2nccc21 (stereo not shown) [Compound 79]
16 | 0.127 µM | 0.004 µM | Nc1nc(N2CCC3(CC2)Cc2ccccc2C3N)cnc1C(=O)N1CCc2nc(F)ccc21 (stereo not shown) [Compound 80]
17 | 0.128 µM | 0.004 µM | Nc1nc(N2CCC3(CC2)Cc2cc(F)ccc2C3N)cnc1C(=O)N1CCc2nc(F)ccc21 (stereo not shown) [Compound 81]
18 | 0.017 µM | 0.004 µM | Nc1nc2c(s1)CN(C(=O)c1nc(Cl)c(N3CCC4(CC3)Cc3ccccc3C4N)nc1N)CC2 (stereo not shown) [Compound 83]
19 | 0.012 µM | 0.004 µM | Cc1nc(C(=O)N2CCc3nc(N)sc3C2)c(N)nc1N1CCC2(CC1)Cc1ccccc1C2N (stereo not shown) [Compound 85]
20 | 0.286 µM | 0.008 µM | Nc1nc(N2CCC3(CC2)Cc2ncsc2C3N)cnc1C(=O)N1CCCn2nccc21 (stereo not shown) [Compound 86]
21 | 0.159 µM | 0.009 µM | CC1(C)CCN(C(=O)c2ncc(N3CCC4(CC3)Cc3ccccc3C4N)nc2N)c2ccnn21 (stereo not shown) [Compound 87]
22 | 0.235 µM | 0.005 µM | CC1CN(C(=O)c2ncc(N3CCC4(CC3)Cc3cc(F)ccc3C4N)nc2N)c2ccc(N)nc21 (stereo not shown) [Compound 88]
23 | 0.127 µM | 0.004 µM | CC1CN(C(=O)c2ncc(N3CCC4(CC3)Cc3ccccc3C4N)nc2N)c2ccc(N)nc21 (stereo not shown) [Compound 89]
24 | 0.061 µM | 0.003 µM | Nc1ccc2c(n1)CCN2C(=O)c1ncc(N2CCC3(CC2)Cc2ccc(Cl)cc2C3N)nc1N (stereo not shown) [Compound 91]
25 | 0.119 µM | 0.004 µM | CNc1ccc2c(n1)CCN2C(=O)c1ncc(N2CCC3(CC2)Cc2ccccc2C3N)nc1N (stereo not shown) [Compound 92]
26 | 0.114 µM | 0.008 µM | COc1ccc2c(c1)C(N)C1(CCN(c3cnc(C(=O)N4Cc5sc(N)nc5C(C)(C)C4)c(N)n3)CC1)C2 (stereo not shown) [Compound 93]
